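Assay format: 96-well plates, 48-hour exposure. TGI denotes the concentration required for complete inhibition of growth.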
Tests used:
Assay in all cases: DTP human tumour cell line panel, 48 h
[1] = test system: HCT-15 colon
[2] = test system: KM12 colon
[3] = test system: M14 melanoma
[4] = test system: MDA-MB-231 breast
[5] = test system: OVCAR-5 ovarian
[6] = test system: RXF 393 renal
[7] = test system: SF-268 CNS
[8] = test system: SK-OV-3 ovarian
[9] = test system: U251 CNS
[10] = test system: UO-31 renal

Measured: TGI

COc1nc2ncc([C@@H](O)[C@H](O)CO)nc2c(=O)[nH]1
> 100 µM: [1] | [2] | [3] | [4] | [5] | [6] | [7] | [8] | [9] | [10]

From PubChem BioAssay (NCI)
